Test results from article PMC13193486, “Phycocyanobilin biosynthesis in Galdieria sulphuraria requires isomerization of phycoerythrobilin synthesized by bilin reductases” (The Febs Journal, 2026).

Target: T1, CmPCYA (Cyanidioschyzon merolae, UniProt M1V4R9)
T1 construct: gene CYME_CMG110C; N-terminal GST-tag, pGEX-6P-1, co-expressed with pGro7 chaperones in E. coli BL21(DE3)
T1 sequence (M1V4R9 1-325): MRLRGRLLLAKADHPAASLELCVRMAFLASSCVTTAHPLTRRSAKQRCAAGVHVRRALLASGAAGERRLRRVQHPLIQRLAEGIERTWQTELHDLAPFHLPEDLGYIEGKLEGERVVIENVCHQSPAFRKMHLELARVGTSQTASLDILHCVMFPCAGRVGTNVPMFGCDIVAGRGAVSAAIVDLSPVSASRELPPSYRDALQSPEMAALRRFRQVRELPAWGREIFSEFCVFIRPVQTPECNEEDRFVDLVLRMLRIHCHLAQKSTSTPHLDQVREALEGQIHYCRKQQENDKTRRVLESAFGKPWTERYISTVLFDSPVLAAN
Assay: anaerobic bilin reductase assay, HPLC
Assay type: biochemical
Details: BV as substrate; PetF, FNR, NADPH-regenerating system; 20 °C

CC=C1C(=Cc2[nH]c(C=C3N=C(C=C4NC(=O)C(CC)=C4C)C(C)=C3CCC(=O)O)c(CCC(=O)O)c2C)NC(=O)C1C (stereo not shown) [PCB]
anaerobic bilin reductase assay, HPLC: catalyzing the reduction of BV to PCB (Fig. 7B: CmPCYA)
